From patent publication US8183262B2, “Pyridine derivatives as mGluR2 antagonists” (Hoffmann-La Roche Inc., priority 2007, dated 2012)

Compound | melting point
FC(F)(F)c1ccc(-c2cc(C(F)(F)F)nc(-c3cccnc3)n2)cc1 [Example 37, 2-Pyridin-3-yl-4-trifluoromethyl-6-(4-trifluoromethyl-phenyl)-pyrimidine] | 134 °C
Cc1cc(-c2ccc(C(F)(F)F)cc2)nc(-c2ccnc(-c3cccc(S(N)(=O)=O)c3)c2)n1 [Example 168, 3-{4-[4-Methyl-6-(4-trifluoromethyl-phenyl)-pyrimidin-2-yl]-pyridin-2-yl}-benzenesulfonamide] | 218.5 °C
CCOc1cc(-c2cc(C(F)(F)F)nc(-c3nc(-c4cccc(S(N)(=O)=O)c4)no3)n2)ccc1C(F)(F)F [Example 91, 3-{5-[4-(3-Ethoxy-4-trifluoromethyl-phenyl)-6-trifluoromethyl-pyrimidin-2-yl]-[1,2,4]oxadiazol-3-yl}-benzenesulfonamide] | 227 °C
NS(=O)(=O)c1ccc(-c2cc(-c3nc(-c4ccc(Cl)c(Cl)c4)cc(C(F)(F)F)n3)ccn2)s1 [Example 205, 5-{4-[4-(3,4-Dichloro-phenyl)-6-trifluoromethyl-pyrimidin-2-yl]-pyridin-2-yl}-thiophene-2-sulfonic acid amide] | 266 °C
Cc1cc(-c2ccc(Cl)c(Cl)c2)nc(-n2cnc(-c3cccc(S(N)(=O)=O)c3)c2)n1 [Example 198, 3-{1-[4-(3,4-Dichloro-phenyl)-6-methyl-pyrimidin-2-yl]-1H-imidazol-4-yl}-benzenesulfonamide] | 210 °C
Cc1cc(-c2cc(C(F)(F)F)nc(-c3ccnc(-c4ccc(N)nc4)c3)n2)ccc1C(F)(F)F [Example 121, 4-[4-(3-Methyl-4-trifluoromethyl-phenyl)-6-trifluoromethyl-pyrimidin-2-yl]-[2,3′]bipyridinyl-6′-ylamine] | 223 °C
Cc1cc(-c2ccc(C(F)(F)F)cc2)nc(-n2cnc(-c3ccc(N)nc3)n2)n1 [Example 151, 5-{1-[4-Methyl-6-(4-trifluoromethyl-phenyl)-pyrimidin-2-yl]-1H-[1,2,4]triazol-3-yl}-pyridin-2-ylamine] | 244 °C
Cc1cc(-c2ccc(C(F)(F)F)cc2)nc(-n2cnc(-c3ccc(S(N)(=O)=O)cc3)c2)n1 [Example 183, 4-{1-[4-Methyl-6-(4-trifluoromethyl-phenyl)-pyrimidin-2-yl]-1H-imidazol-4-yl}-benzenesulfonamide] | 323 °C
Nc1ccc(-c2cccc(-c3nc(-c4cccc(C(F)(F)F)c4)cc(C(F)(F)F)n3)c2)cn1 [Example 140, 5-{3-[4-Trifluoromethyl-6-(3-trifluoromethyl-phenyl)-pyrimidin-2-yl]-phenyl}-pyridin-2-ylamine] | 162 °C
Nc1ccc(-c2cc(-c3nc(-c4ccc(Cl)cc4)cc(C(F)(F)F)n3)ccn2)cn1 [Example 30, 4-[4-(4-Chloro-phenyl)-6-trifluoromethyl-pyrimidin-2-yl]-[2,3′]bipyridinyl-6′-ylamine] | 227 °C
FC(F)(F)c1cc(-c2ccc(Cl)cc2)nc(-c2ccnc(-c3ccncc3)c2)n1 [Example 86, 4-[4-(4-Chloro-phenyl)-6-trifluoromethyl-pyrimidin-2-yl]-[2,4′]bipyridinyl] | 193 °C
Cc1cc(-c2ccc(C(F)(F)F)cc2)nc(-n2cnc(-c3cnc(N)nc3)c2)n1 [Example 47, 5-{1-[4-Methyl-6-(4-trifluoromethyl-phenyl)-pyrimidin-2-yl]-1H-imidazol-4-yl}-pyrimidin-2-ylamine] | 267 to 269 °C
Cc1cc(-c2ccc(C(F)(F)F)c(C)c2)nc(-c2ccnc(-c3ccc(N)nc3)c2)n1 [Example 131, 4-[4-Methyl-6-(3-methyl-4-trifluoromethyl-phenyl)-pyrimidin-2-yl]-[2,3′]bipyridinyl-6′-ylamine] | 188 °C
Cc1cc(-c2ccc(Cl)c(Cl)c2)nc(-c2cccc(-c3cccc(S(N)(=O)=O)c3)c2)n1 [Example 193, 3′-[4-(3,4-Dichloro-phenyl)-6-methyl-pyrimidin-2-yl]-biphenyl-3-sulfonic acid amide] | 206.5 °C
Nc1ncc(-c2noc(-c3nc(-c4ccc(C(F)(F)F)cc4)cc(C(F)(F)F)n3)n2)cn1 [Example 20, 5-{5-[4-Trifluoromethyl-6-(4-trifluoromethyl-phenyl)-pyrimidin-2-yl]-[1,2,4]oxadiazol-3-yl}-pyrimidin-2-ylamine] | 216 °C
Cc1cc(-c2cc(C(F)(F)F)nc(-c3cccc(-c4ccc(N)nc4)c3)n2)ccc1Cl [Example 105, 5-{3-[4-(4-Chloro-3-methyl-phenyl)-6-trifluoromethyl-pyrimidin-2-yl]-phenyl}-pyridin-2-ylamine] | 168.5 °C
NS(=O)(=O)c1ccc(-c2cn(-c3nc(-c4cccc(Cl)c4)cc(C(F)(F)F)n3)cn2)s1 [Example 188, 5-{1-[4-(3-Chloro-phenyl)-6-trifluoromethyl-pyrimidin-2-yl]-1H-imidazol-4-yl}-thiophene-2-sulfonic acid amide] | 280 °C
Cc1cc(-c2ccc(Cl)cc2)cc(-n2cnc(-c3ccc(N)nc3)c2)n1 [Example 80, 5-{1-[4-(4-Chloro-phenyl)-6-methyl-pyridin-2-yl]-1H-imidazol-4-yl}-pyridin-2-ylamine] | 230 to 233 °C

Other lines, results leading:

melting point | Compound
227 °C | Cc1cc(-c2ccc(C(F)(F)F)cc2)cc(-c2cccc(-c3ccc(S(=O)(=O)NC(C)(C)C)s3)n2)n1 [Example 305, 5-[6′-Methyl-4′-(4-trifluoromethyl-phenyl)-[2,2′]bipyridinyl-6-yl]-thiophene-2-sulfonic acid tert-butylamide]
144 °C | CCCN(C)S(=O)(=O)c1cccc(-c2cc(-c3nc(-c4ccc(C(F)(F)F)cc4)cc(C(F)(F)F)n3)ccn2)c1 [Example 404, N-Methyl-N-propyl-3-{4-[4-trifluoromethyl-6-(4-trifluoromethyl-phenyl)-pyrimidin-2-yl]-pyridin-2-yl}-benzenesulfonamide]
126 °C (dec.) | COc1ccc(CNS(=O)(=O)c2cccc(-c3cccc(-c4cc(-c5ccc(C(F)(F)F)cc5)cc(C)n4)n3)c2)cc1 [Example 432, N-(4-Methoxy-benzyl)-3-[6′-methyl-4′-(4-trifluoromethyl-phenyl)-[2,2′]bipyridinyl-6-yl]-benzenesulfonamide]
183 °C | Cc1cc(-c2ccc(C(F)(F)F)cc2)cc(-c2cccc(-c3cccc(S(=O)(=O)NC(C)(C)C)c3)n2)n1 [Example 261, N-tert-Butyl-3-[6′-methyl-4′-(4-trifluoromethyl-phenyl)-[2,2′]bipyridinyl-6-yl]-benzenesulfonamide]
> 250 °C | Cc1cc(-c2ccc(C(F)(F)F)cc2)cc(-c2cccc(-c3cncc(S(N)(=O)=O)c3)c2)n1 [Example 248, 5-{3-[6-Methyl-4-(4-trifluoromethyl-phenyl)-pyridin-2-yl]-phenyl}-pyridine-3-sulfonic acid amide]
238 °C | NS(=O)(=O)c1ccc(-c2cccc(-c3nc(-c4ccc(F)c(F)c4)cc(C(F)(F)F)n3)c2)s1 [Example 388, 5-{3-[4-(3,4-Difluoro-phenyl)-6-trifluoromethyl-pyrimidin-2-yl]-phenyl}-thiophene-2-sulfonic acid amide]
334 °C | NS(=O)(=O)c1ccc(-c2cn(-c3nc(-c4ccc(Cl)c(Cl)c4)cc(C(F)(F)F)n3)cn2)cc1 [Example 211, 4-{1-[4-(3,4-Dichloro-phenyl)-6-trifluoromethyl-pyrimidin-2-yl]-1H-imidazol-4-yl}-benzenesulfonamide]
234 °C | Cc1cc(-c2cc(C(F)(F)F)nc(-c3ccnc(-c4cccc(S(N)(=O)=O)c4)c3)n2)ccc1Cl [Example 415, 3-{4-[4-(4-Chloro-3-methyl-phenyl)-6-trifluoromethyl-pyrimidin-2-yl]-pyridin-2-yl}-benzenesulfonamide]
227 °C (dec.) | NS(=O)(=O)c1cccc(-c2cc(-c3cc(C(F)(F)F)cc(-c4ccc(C(F)(F)F)cc4)n3)ccn2)c1 [Example 286, 3-[4-Trifluoromethyl-6-(4-trifluoromethyl-phenyl)-[2,4′]bipyridinyl-2′-yl]-benzenesulfonamide]
235 °C (dec.) | Cc1cc(-c2ccc(C(F)(F)F)cc2)cc(-c2cncc(-c3cccc(S(N)(=O)=O)c3)c2)n1 [Example 295, 3-[6-Methyl-4-(4-trifluoromethyl-phenyl)-[2,3′]bipyridinyl-5′-yl]-benzenesulfonamide]
249.5 °C | Nc1ccc(-c2cn(-c3nc(-c4ccc(F)cc4)cc(C(F)(F)F)n3)cn2)cn1 [Example 378, 5-{1-[4-(4-Fluoro-phenyl)-6-trifluoromethyl-pyrimidin-2-yl]-1H-imidazol-4-yl}-pyridin-2-ylamine]
97 °C (dec.) | NS(=O)(=O)c1ccc(-c2cc(-c3cc(C(F)(F)F)cc(-c4ccc(C(F)(F)F)cc4)n3)ccn2)s1 [Example 321, 5-[4-Trifluoromethyl-6-(4-trifluoromethyl-phenyl)-[2,4′]bipyridinyl-2′-yl]-thiophene-2-sulfonic acid amide]
229 °C | Cc1cc(-c2ccc(C(F)(F)F)cc2)nc(-c2cccc(-c3cccc(S(N)(=O)=O)c3)n2)c1 [Example 310, 3-[4′-Methyl-6′-(4-trifluoromethyl-phenyl)-[2,2′]bipyridinyl-6-yl]-benzenesulfonamide]
176 °C | CNS(=O)(=O)c1cccc(-c2cccc(-c3cc(-c4ccc(C(F)(F)F)cc4)cc(C)n3)n2)c1 [Example 422, N-Methyl-3-[6′-methyl-4′-(4-trifluoromethyl-phenyl)-[2,2′]bipyridinyl-6-yl]-benzenesulfonamide]
123 °C | Cc1cc(-c2ccc(C(F)(F)F)cc2)cc(-c2cccc(-c3cccc(S(=O)(=O)NCCOCCO)c3)n2)n1 [Example 372, N-[2-(2-Hydroxy-ethoxy)-ethyl]-3-[6′-methyl-4′-(4-trifluoromethyl-phenyl)-[2,2′]bipyridinyl-6-yl]-benzenesulfonamide]
155 °C | Cc1cc(-c2ccc(C(F)(F)F)cc2)cc(-c2cccc(-c3cccc(S(=O)(=O)N(C)C)c3)n2)n1 [Example 423, N,N-Dimethyl-3-[6′-methyl-4′-(4-trifluoromethyl-phenyl)-[2,2′]bipyridinyl-6-yl]-benzenesulfonamide]
